Data: US20240270762A1, “PENICILLIN-BINDING PROTEIN INHIBITORS” (priority 2021, published 2024)
Values after ≈ are worked out from the molar mass of the structure shown.

Key:
P. aeruginosa CDC-0095 = assay: microbe, parasite or virus in culture; format: cell-based; details: Pseudomonas aeruginosa, CDC0095, read-out: Minimum inhibitory concentration, P. aeruginosa CDC-0095
[1] = biological target: T1, PBP3 from Acinetobacter baumannii (ATCC 19606) (Acinetobacter baumannii, UniProt A0ABX6CK25); assay: Bocillin-FL fluorescence polarization competition binding, A. baumannii PBP3; details: fluorescence polarization competition binding assay using Bocillin-FL; read-out: A. baumannii PBP3 Potency
T1 sequence (A0ABX6CK25 64-610): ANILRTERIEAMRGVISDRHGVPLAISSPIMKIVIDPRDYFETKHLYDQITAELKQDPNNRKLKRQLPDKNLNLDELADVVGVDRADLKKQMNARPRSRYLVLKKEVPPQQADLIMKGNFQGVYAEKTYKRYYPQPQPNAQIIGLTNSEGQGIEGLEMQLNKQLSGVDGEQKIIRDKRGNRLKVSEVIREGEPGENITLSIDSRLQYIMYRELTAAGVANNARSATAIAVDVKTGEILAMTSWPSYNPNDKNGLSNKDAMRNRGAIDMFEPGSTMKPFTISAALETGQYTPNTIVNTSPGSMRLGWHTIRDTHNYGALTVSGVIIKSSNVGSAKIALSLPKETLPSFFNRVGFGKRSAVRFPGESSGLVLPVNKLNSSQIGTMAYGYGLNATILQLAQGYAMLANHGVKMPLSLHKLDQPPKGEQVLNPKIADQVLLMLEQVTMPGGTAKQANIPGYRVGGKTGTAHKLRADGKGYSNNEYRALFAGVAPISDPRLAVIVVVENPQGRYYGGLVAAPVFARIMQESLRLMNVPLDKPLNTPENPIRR
Procedure, shortened: (§1)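 Purified PBP was preincubated with inhibitor (E. coli PBP3 1.5 μM, 30 min; P. aeruginosa PBP3 0.75 μM, A. baumannii PBP3 0.2 μM and PBP1a 1 μM, 15 min), then Bocillin-FL (0.1 μM; 0.05 μM for PBP1a) added and FP read up to 60 min. EC50 = 50% loss of bound probe.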

[2] = test system: P. aeruginosa (ΔmexAB-oprM); assay: Broth microdilution MIC in iron-depleted CAMHB (IDM); format: cell-based; details: Pseudomonas aeruginosa; iron-depleted CAMHB (IDM); […]; read-out: Minimum inhibitory concentration, P. aeruginosa ΔmexAB-oprM
A. baumannii 1258916 = assay: microbe, parasite or virus in culture; format: cell-based, Acinetobacter baumannii; details: Acinetobacter baumannii, 1258916, read-out: Minimum inhibitory concentration (MIC), A. baumannii 1258916
P. aeruginosa CDC-0110 = assay: microbe, parasite or virus in culture; format: cell-based; details: Pseudomonas aeruginosa, CDC0110, read-out: Minimum inhibitory concentration, P. aeruginosa CDC-0110
A. baumannii CDC-0033 = assay: microbe, parasite or virus in culture; format: cell-based; details: Acinetobacter baumannii, CDC0033, read-out: Minimum inhibitory concentration (MIC), A. baumannii CDC-0033
[3] = biological target: T2, PBP3 from Pseudomonas aeruginosa (PAO1) (Pseudomonas aeruginosa, UniProt G3XD46); assay: Bocillin-FL fluorescence polarization competition binding, P. aeruginosa PBP3; details: Binding affinity to P. aeruginosa PBP3; fluorescence polarization competition binding assay using Bocillin-FL; read-out: P. aeruginosa PBP3 Potency
T2 construct: made in house
T2 sequence (G3XD46 whole entry): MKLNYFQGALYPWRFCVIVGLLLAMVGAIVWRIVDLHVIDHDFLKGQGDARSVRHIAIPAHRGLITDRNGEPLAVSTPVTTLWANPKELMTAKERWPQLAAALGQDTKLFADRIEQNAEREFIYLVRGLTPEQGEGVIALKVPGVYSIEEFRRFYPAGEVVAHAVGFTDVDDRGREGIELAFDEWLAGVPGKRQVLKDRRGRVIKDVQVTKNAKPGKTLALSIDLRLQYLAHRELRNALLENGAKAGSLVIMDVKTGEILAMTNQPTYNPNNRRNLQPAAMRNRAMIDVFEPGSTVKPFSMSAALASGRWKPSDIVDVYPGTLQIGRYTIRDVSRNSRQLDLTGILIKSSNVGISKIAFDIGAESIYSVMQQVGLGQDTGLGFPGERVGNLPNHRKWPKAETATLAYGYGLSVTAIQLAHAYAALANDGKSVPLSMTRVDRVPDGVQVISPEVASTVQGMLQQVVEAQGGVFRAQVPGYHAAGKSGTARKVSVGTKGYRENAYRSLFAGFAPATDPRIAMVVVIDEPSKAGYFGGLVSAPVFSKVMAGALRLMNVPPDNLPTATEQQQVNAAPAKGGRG
Procedure, shortened: as §1

A. baumannii CDC-0036 = assay: microbe, parasite or virus in culture; format: cell-based; details: Acinetobacter baumannii, CDC0036, read-out: Minimum inhibitory concentration (MIC), A. baumannii CDC-0036
P. aeruginosa ATCC 35151 = assay: microbe, parasite or virus in culture; format: cell-based; details: Pseudomonas aeruginosa, ATCC35151, read-out: Minimum inhibitory concentration, P. aeruginosa ATCC 35151

Which results are given for `O=C(O)c1c(F)ccc2c1OB(O)[C@@H](NC(=O)C(NC(=O)N1CCN(C3CCN(C(=O)Nc4ccc(F)c(O)c4F)CC3)C(=O)C1=O)c1cc(F)c(O)c(O)c1Cl)C2` (stereo partly drawn) [Example 486, (3R)-3-(2-(2-chloro-5-fluoro-3,4-dihydroxyphenyl)-2-(4-(1-((2,4-difluoro-3-hydroxyphenyl)carbamoyl)piperidin-4-yl)-2,3-dioxopiperazine-1-carboxamido)acetamido)-7-fluoro-2-hydroxy-3,4-dihydro-2H-benzo[e][1,2]oxaborinine-8-carboxylic acid]?
MIC (P. aeruginosa CDC-0095): < 1 µg/mL; IC50 [1]: < 10 µM; MIC [2]: < 1 µg/mL; MIC (A. baumannii 1258916): < 1 µg/mL; MIC (P. aeruginosa CDC-0110): < 1 µg/mL; MIC (A. baumannii CDC-0033): 2 to 4 µg/mL (≈ 2.39 to 4.78 µM); IC50 [3]: < 10 µM; MIC (A. baumannii CDC-0036): < 1 µg/mL; MIC (P. aeruginosa ATCC 35151): < 1 µg/mL
